# Patent US20090233966A1, “Analogues of the Azinomycins as Anti-Tumour Agents and as Prodrugs” (School of Pharmacy, University of London, priority 2005, published 2009)
# pEC50: −log10 of the molar value. “Also recorded” adds a separate entry of the source. Read-outs that look alike come from different tables or passages of the source.
# Legend:
# [1] = tested on: OVCAR-5; assay: NCI 60 cell panel growth inhibition; type: cell-based, human; conditions: OVAR, read-out: anti-tumour activity GI50
# From the text: (§1) Examples 6 and 7 make use of the NCl 60 cell panel. This is an in vitro cell line screening project providing direct support to the National Cancer Institute's USA Developmental Therapeutic Programme for anti cancer discovery. The methodolgy for the cell line's operation is described by Boyd et al in Drug Development Research 1995, 34, 91-109.
# [2] = tested on: K562; assay: NCI 60 cell panel growth inhibition; type: cell-based, human; conditions: Leukemia, read-out: anti-tumour activity GI50
# From the text: as §1
# [3] = tested on: HCC2998; assay: NCI 60 cell panel growth inhibition; type: cell-based, human; conditions: read-out: anti-tumour activity GI50
# From the text: as §1
# [4] = tested on: A498; assay: NCI 60 cell panel growth inhibition; type: cell-based, human; conditions: RENAL, read-out: anti-tumour activity GI50
# From the text: as §1
# [5] = tested on: SN12C; assay: NCI 60 cell panel growth inhibition; type: cell-based, human; conditions: RENAL, read-out: anti-tumour activity GI50
# From the text: as §1
# [6] = tested on: 435; assay: NCI 60 cell panel growth inhibition; type: cell-based, human; conditions: BREAST, read-out: anti-tumour activity GI50
# From the text: as §1
# [7] = tested on: A549/ATCC; assay: NCI 60 cell panel growth inhibition; type: cell-based, human; conditions: NSCLC, read-out: anti-tumour activity GI50
# From the text: as §1
# [8] = tested on: linear double stranded plasmid pUC18 DNA; assay: DNA crosslinking; type: biochemical; conditions: for pEC50: read-out: CR50 (concentration at which 50% of the duplex is crosslinked)
# Protocol: Plasmid DNA pUC 18 was linearised by digestion with Hind III. The linear DNA was then dephosphorylated with BAP and ^32P-radiolabelled on the 5′-end. The DNA was then purified by EtOH precipitation to remove unincorporated γ-^32P ATP and the DNA resuspended in sterile double distilled H2O. To each reaction sample was added ^32P-end labelled DNA and drug at the appropriate concentration. Following incubation at 37° C. for the required time, the reaction was terminated by the addition of Stop Solution Buffer. The DNA-drug adduct was EtOH precipitated and dried by lyophilisation. Each dried DNA sample including an untreated DNA single strand as a control was denatured by resuspending in alkali denaturing buffer. The double stranded control DNA was then dissolved in sucrose loading buffer and the samples loaded and electrophoresed on a 20 cm long 0.8% horizontal agarose gel submerged in 1×TAE buffer at 40 V for 16 h. Gels were then dried and autoradiographed
# Compound 20 which consists of both the epoxide and mustard functionality was tested at concentrations between 0.1 and 50 μM at 1 h, 2 h and 3 h intervals. […] Crosslink formation starts at concentrations as low as 0.1 μM and reaches 100% crosslinking at −10 μM. After incubation for an hour the CR50 (concentration at which 50% of the duplex is crosslinked) was determined to be 3.1 μM. The percentage of crosslinked DNA was determined from autoradiograph densitometry.
# [9] = tested on: NCl 60 cell panel; assay: NCI 60 cell line panel antitumour activity (whole panel); type: cell-based, human; conditions: for GI50: MGMID line of the panel, read-out: anti-tumour activity GI50, MGMID; for antitumour activity in the NCl 60 cell line panel (in words): wide range of human tumour cell lines
# From the text: as §1
# [10] = tested on: SNB-75; assay: NCI 60 cell panel growth inhibition; type: cell-based; conditions: Homo sapiens, CNS, read-out: anti-tumour activity GI50
# From the text: as §1
# [11] = tested on: HCT-15; assay: NCI 60 cell panel growth inhibition; type: cell-based; conditions: Homo sapiens, COLON, read-out: anti-tumour activity GI50
# From the text: as §1
structure (smiles),measurement,setting,value
COc1cc(C(=O)OC(C(=O)NCCN2CCCC(Cl)C2)C2(C)CO2)c2cccc(C)c2c1 (stereo not drawn) [Compound 20],GI50,[1],16.1 µM
same,GI50,[2],8.33 µM
same,GI50,[3]; COLON,8.25 µM
same,GI50,[4],17.7 µM
same,GI50,[5],6.76 µM
same,GI50,[6],14.3 µM
same,GI50,[7],31.1 µM
same,concentration at which crosslink formation starts,[8]; 1 h incubation,0.1 µM
same,pEC50,"[8]; 1 h incubation, 37° C.",5.51
same,pEC50,[8]; 2 h incubation,5.57
same,pEC50,[8]; 3 h incubation,5.66
same,GI50,[9],12.3 µM
same,antitumour activity in the NCl 60 cell line panel (in words),[9],low micromolar to high nanomolar activity; also recorded: significant cytotoxicity in the low micromolar range
C=C(C)[C@H](OC(=O)c1cc(OC)cc2c(C)cccc12)C(=O)NCCN1CCCC(Cl)C1 (stereo partly drawn) [Compound 21],GI50,[1]; Homo sapiens,11.1 µM
same,GI50,[2]; Homo sapiens,5.16 µM
same,GI50,"[3]; Homo sapiens, HCC 2998, COLON",4.27 µM
same,GI50,[4]; Homo sapiens,0.19 µM
same,GI50,[5]; Homo sapiens,3.76 µM
same,GI50,"[6]; Homo sapiens, 60 cell",7.62 µM
same,GI50,[7]; Homo sapiens,8.26 µM
same,GI50,[10],1200 nM
same,GI50,[11],49 nM
same,GI50,"[9]; Homo sapiens, 60 cell",5.12 µM
same,antitumour activity in the NCl 60 cell line panel (in words),[9],significant cytotoxicity in the low micromolar range
